What was measured:
Assay in all cases: relative viability (nuclei count vs DMSO), 5 days (fraction); higher = more cells survive
Avagacestat + Decitabine = compound: NC(=O)[C@@H](CCC(F)(F)F)N(Cc1ccc(-c2ncon2)cc1F)S(=O)(=O)c1ccc(Cl)cc1 [Avagacestat] + Nc1ncn([C@H]2C[C@H](O)[C@@H](CO)O2)c(=O)n1 [Decitabine] (partner 2 µM)
Summary of the method: (§1)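 Medians of duplicate plates are given as relative viability. That measure is the nuclei count in treated wells divided by the count in vehicle wells. Counts were taken on 4× images of lung cancer cell lines in 1536-well plates, 5 days after pin-tool dosing the day after seeding with one drug alone or a fixed anchor-drug dose plus five library-drug doses (not always all listed) in √10 steps.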

Avagacestat + Tozasertib = compound: NC(=O)[C@@H](CCC(F)(F)F)N(Cc1ccc(-c2ncon2)cc1F)S(=O)(=O)c1ccc(Cl)cc1 [Avagacestat] + Cc1cc(Nc2cc(N3CCN(C)CC3)nc(Sc3ccc(NC(=O)C4CC4)cc3)n2)n[nH]1 [Tozasertib] (partner 0.1 µM)
Summary of the method: as §1

Avagacestat + Crizotinib = compound: NC(=O)[C@@H](CCC(F)(F)F)N(Cc1ccc(-c2ncon2)cc1F)S(=O)(=O)c1ccc(Cl)cc1 [Avagacestat] + C[C@@H](Oc1cc(-c2cnn(C3CCNCC3)c2)cnc1N)c1c(Cl)ccc(F)c1Cl [Crizotinib] (partner 1 µM)
Summary of the method: as §1

Avagacestat + Lapatinib = compound: NC(=O)[C@@H](CCC(F)(F)F)N(Cc1ccc(-c2ncon2)cc1F)S(=O)(=O)c1ccc(Cl)cc1 [Avagacestat] + CS(=O)(=O)CCNCc1ccc(-c2ccc3ncnc(Nc4ccc(OCc5cccc(F)c5)c(Cl)c4)c3c2)o1 [Lapatinib] (partner 2 µM)
Summary of the method: as §1

Row | Cell Line | relative viability (Avagacestat + Decitabine; first compound 0.08 µM) | relative viability (Avagacestat + Decitabine; first compound 0.253 µM) | relative viability (Avagacestat + Decitabine; first compound 0.8 µM) | relative viability (Avagacestat + Decitabine; first compound 2.53 µM) | relative viability (Avagacestat + Decitabine; first compound 8 µM) | relative viability (Avagacestat + Tozasertib; first compound 0.08 µM) | relative viability (Avagacestat + Tozasertib; first compound 0.253 µM) | relative viability (Avagacestat + Tozasertib; first compound 0.8 µM) | relative viability (Avagacestat + Tozasertib; first compound 2.53 µM) | relative viability (Avagacestat + Tozasertib; first compound 8 µM) | relative viability (Avagacestat + Crizotinib; first compound 0.08 µM) | relative viability (Avagacestat + Crizotinib; first compound 0.253 µM) | relative viability (Avagacestat + Crizotinib; first compound 0.8 µM) | relative viability (Avagacestat + Crizotinib; first compound 2.53 µM) | relative viability (Avagacestat + Crizotinib; first compound 8 µM) | relative viability (Avagacestat + Lapatinib; first compound 0.08 µM) | relative viability (Avagacestat + Lapatinib; first compound 0.253 µM) | relative viability (Avagacestat + Lapatinib; first compound 0.8 µM) | relative viability (Avagacestat + Lapatinib; first compound 2.53 µM) | relative viability (Avagacestat + Lapatinib; first compound 8 µM)
1 | 201T | 0.861 | 0.885 | 0.888 | 0.801 | 0.767 | 0.967 | 1.06 | 0.922 | 0.843 | 0.9 | 1.06 | 0.991 | 1.03 | 1.04 | 1.01 | 1.04 | 1.06 | 1.12 | 0.995 | 1.01
2 | A-427 | 0.549 | 0.583 | 0.565 | 0.619 | 0.601 | 0.203 | 0.185 | 0.206 | 0.198 | 0.198 | 0.986 | 1.19 | 0.842 | 0.75 | 0.837 | 1.03 | 1.28 | 1.12 | 1.07 | 1.06
3 | ABC-1 | 1.12 | 1.26 | 1.07 | 1.17 | 1.24 | 0.164 | 0.16 | 0.178 | 0.187 | 0.179 | 1.05 | 1.59 | 1.53 | 1.09 | 1.09 | 1.23 | 1.32 | 1.14 | 0.497 | 1.15
4 | BEN | 0.734 | 0.712 | 0.824 | 0.732 | 0.685 | 0.512 | 0.504 | 0.526 | 0.449 | 0.49 | 0.835 | 1.12 | 0.835 | 0.607 | 0.809 | 0.886 | 0.768 | 0.685 | 0.592 | 0.585
5 | CAL-12T |  |  |  |  |  | 0.368 | 0.358 | 0.385 | 0.24 | 0.278 | 0.607 | 0.52 | 0.717 | 0.627 | 0.679 | 0.836 | 0.859 | 0.833 | 0.747 | 0.699
6 | COR-L23 | 0.519 | 0.406 | 0.434 | 0.399 | 0.39 | 0.363 | 0.152 | 0.171 | 0.173 | 0.149 | 0.678 | 0.642 | 0.552 | 0.643 | 0.441 | 1.26 | 1.1 | 1.3 | 0.95 | 0.4
7 | COR-L 105 | 0.665 | 0.734 | 0.642 | 0.595 | 0.558 | 0.379 | 0.458 | 0.41 | 0.334 | 0.359 | 0.856 | 0.815 | 0.919 | 0.547 | 0.72 | 0.345 | 0.352 | 0.341 | 0.345 | 0.348
8 | Calu-6 |  |  |  |  |  |  |  |  |  |  | 0.998 | 0.968 | 0.885 | 0.824 | 0.691 | 1.41 | 1.41 | 1.26 | 1.47 | 1.03
9 | ChaGo-K-1 | 0.558 | 0.526 | 0.492 | 0.516 | 0.49 | 0.198 | 0.238 | 0.22 | 0.212 | 0.226 | 1.06 | 1.31 | 1.11 | 1.05 | 0.974 |  |  |  |  | 
10 | EBC-1 |  |  |  |  |  |  |  |  |  |  | 0.213 | 0.196 | 0.2 | 0.21 | 0.203 | 0.212 | 0.231 | 0.246 | 0.23 | 0.202
11 | EKVX | 0.391 | 0.299 | 0.378 | 0.354 | 0.36 | 0.401 | 0.373 | 0.382 | 0.34 | 0.287 | 1.02 | 1.35 | 1.06 | 0.899 | 0.857 | 0.227 | 0.208 | 0.226 | 0.186 | 0.184
12 | EMC-BAC-2 | 1.1 | 1.06 | 1.09 | 1.07 | 1.07 | 0.278 | 0.299 | 0.31 | 0.255 | 0.322 | 0.797 | 0.844 | 0.766 | 0.704 | 0.719 | 0.978 | 0.956 | 1.02 | 0.954 | 0.841
13 | EPLC-272H | 0.421 | 0.435 | 0.4 | 0.322 | 0.352 | 0.186 | 0.48 | 0.152 | 0.249 | 0.203 | 1.06 | 0.988 | 1.03 | 0.969 | 0.799 | 1.1 | 0.963 | 0.883 | 1.15 | 0.997
14 | H3255 | 0.619 | 0.731 | 0.678 | 0.591 | 0.542 | 0.529 | 0.55 | 0.825 | 0.556 | 0.693 | 1.05 | 1.07 | 1.01 | 0.872 | 0.865 | 0.262 | 0.259 | 0.3 | 0.244 | 0.276
15 | HARA | 0.4 | 0.377 | 0.621 | 0.435 | 0.448 | 0.0944 | 0.0986 | 0.0937 | 0.0995 | 0.145 | 1.23 | 1.27 | 1.06 | 1.03 | 0.76 | 0.628 | 0.692 | 0.526 | 0.624 | 0.63
16 | HCC-15 | 0.791 | 0.745 | 0.705 | 0.575 | 0.523 | 0.404 | 0.461 | 0.434 | 0.337 | 0.167 | 0.871 | 0.911 | 0.695 | 0.715 | 0.779 | 0.95 | 1.04 | 1.12 | 0.879 | 0.778
17 | HCC-44 | 0.991 | 0.944 | 0.985 | 0.968 | 0.986 | 1.03 | 1.27 | 0.976 | 0.146 | 0.755 | 0.92 | 0.905 | 0.846 | 0.838 | 0.699 | 1.23 | 0.893 | 1.17 | 1.03 | 0.98

Reference: the supplement of paper PMC10307832
